pIC50: −log10 of the molar value.
Biological target: 5-hydroxytryptamine receptor 7 (Homo sapiens, UniProt P34969)
Experiment: Displacement of [3H]LSD from human 5HT7 receptor expressed in CHO cells
Type: cell-based

Chain of 5-hydroxytryptamine receptor 7 (P34969 whole entry): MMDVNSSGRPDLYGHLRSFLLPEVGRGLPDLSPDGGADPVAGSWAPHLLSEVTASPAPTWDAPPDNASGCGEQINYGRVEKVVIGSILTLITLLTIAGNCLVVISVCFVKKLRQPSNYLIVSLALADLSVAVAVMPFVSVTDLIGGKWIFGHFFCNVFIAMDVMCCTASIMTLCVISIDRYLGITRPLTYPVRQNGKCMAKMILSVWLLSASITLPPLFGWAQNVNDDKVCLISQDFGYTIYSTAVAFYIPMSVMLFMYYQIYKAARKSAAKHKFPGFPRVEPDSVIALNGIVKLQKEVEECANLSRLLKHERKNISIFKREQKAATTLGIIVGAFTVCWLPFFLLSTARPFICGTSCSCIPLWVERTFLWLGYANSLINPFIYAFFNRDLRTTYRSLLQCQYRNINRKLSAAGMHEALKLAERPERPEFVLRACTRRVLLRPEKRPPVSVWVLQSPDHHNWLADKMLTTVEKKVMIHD

SMILES	pIC50
O=C1C[C@@H](c2ccccc2)Oc2cc(O[C@@H]3O[C@H](C(=O)O)[C@@H](O)[C@H](O)[C@H]3O)c(O)c(O)c21 [DIHYDROBAICALIN]	3.75
O=C(O)[C@H]1O[C@@H](Oc2cc3oc(-c4ccc(O)cc4)cc(=O)c3c(O)c2O)[C@H](O)[C@@H](O)[C@@H]1O [SCUTELLARIN]	4.20
O=c1cc(-c2ccccc2)oc2cc(O)c(O)c(O)c12 [BAICALEIN]	< 3.46

Now from value to molecule:

pIC50	SMILES
< 3.70	O=C(O)[C@H]1O[C@@H](Oc2cc3oc(-c4ccccc4)cc(=O)c3c(O)c2O)[C@H](O)[C@@H](O)[C@@H]1O [BAICALIN]
< 3.46	COc1c(O)cc(O)c2c(=O)cc(-c3ccccc3)oc12 [WOGONIN]
3.87	O=C(O)[C@H]1O[C@@H](Oc2cc3oc(-c4ccccc4O)cc(=O)c3c(O)c2O)[C@H](O)[C@@H](O)[C@@H]1O [IKONNIKOSIDE I]

Source: ChEMBL document CHEMBL1159364, “Inhibition of [3H]-LSD binding to 5-HT7 receptors by flavonoids from Scutellaria lateriflora” (J Nat Prod, 2003)
